Source: patent US20020032183A1, “Use of (di-substituted-phenyl)-pyrimidinyl-imidazole derivatives as JNK-inhibitors” (priority 2000, published 2002)

Assays:
[1] = test system: Rat superior cervical ganglion neurons; experiment: Sympathetic neuronal NGF deprivation assay (GAP-43 ELISA and cell counts); type: cell-based; details: for Survival, Cell Counts Mean / Survival, ELISA Data Mean: 72 hours; for Survival, ELISA Data Mean: GAP-43 ELISA
Description: Activation of c-jun-N-terminal kinase (JNK) has been implicated in apoptosis in sympathetic neurons. An inhibitor of JNK, Example 2, was tested for neuroprotective effects in two models of sympathetic neuronal cell death.
In the second model, ganglia were dissociated and plated in the presence of NGF 25 ng/ml for 4 days. The NGF was then removed by washing and application of a blocking antibody, and L-790,984 coadministered for 72 hours. Survival was then assayed using the GAP-43 ELISA. This model will be referred to hereafter as the ‘NGF deprivation assay’.
Ganglia were enzymatically dissociated using 0.25% trypsin for 45 minutes. The trypsin was then inhibited using Dulbecco's MEM (DMEM) supplemented with 10% fetal bovine serum, and the cells mechanically triturated using a pipette tip to form a single cell suspension. Neurons in the suspension were counted using a haemocytometer, and plated at a density of 3000-5000 neurons per well in poly-D-lysine and laminin coated 96 well tissue culture clusters in DMEM supplemented with B27 serum substitute. Cultures were then incubated at 37° C./5% CO2. One hour following plating, cultures were either treated with NGF 25 ng/ml or with L-790,984 at a range of concentrations for the NGF deprivation and survival assays respectively.
Cultures for the NGF deprivation assay were returned to the incubator for 4 days. Following this, the medium was aspirated, plates washed once with DMEM/B27, and the cultures treated with Example 2 at concentrations ranging from 1 nM to 10 μM, together with an anti-NGF blocking antibody at 250 ng/ml. Cultures were then returned to the incubator for a further 72 hours prior to fixation and survival quantification. Cultures treated with Example 2 immediately for the survival assay were returned to the incubator for 48 hours; cultures were then fixed and survival quantified using the GAP-43 ELISA.
Cultures were fixed by the addition of an equal volume 4% paraformaldehyde to each well for 10 minutes; this was then aspirated, and replaced by a further volume of 4% paraformaldehyde for a further 20 minutes at room temperature. Plates were then washed three times with PBS/0.3% TX100, and non-specific binding sites blocked by the addition of 5% normal horse serum (NHS) in PBS/0.3% TX100. Plates were incubated at room temperature for one hour, then the blocking serum was aspirated without washing and replaced with primary antibody. The primary antibody used was a mouse monoclonal antibody raised against Growth Associated Protein 43 (Sigma), prepared at a dilution of 1:500 in PBS/0.3% TX100/5% NHS. Primary antibody was added to all sample wells, with four control wells returned to blocking serum to act as minus primary control. Plates were then refrigerated overnight at 4° C. The next day, plates were washed three times with PBS/0.3 TX100 and secondary antibody added. The secondary antibody used was peroxidase conjugated sheep anti-mouse IgG, and was added at a dilution of 1:1000 in PBS/0.3% TX100/5% NHS. Plates were incubated for 1 hour at room temperature, then washed three times with PBS/0.3% TX100, and K-Blue insoluble peroxidase substrate added for 30 minutes at room temperature. The optical density of the plates was then read at 650 nm, and the survival of neurons calculated and expressed as percentage of the control response.
Cell counts were performed on one sample plate for each model of sympathetic neuronal cell death, by the addition of a tertiary antibody to the plate, followed by avidin-biotin complex and an insoluble peroxidase substrate. Following quantification of optical density, plates were washed three times in PBS/0.3% TX100, and non-specific sites blocked using PBS/0.3% TX100/5% normal rabbit serum (“NRS”). Plates were incubated for one hour at room temperature, then the blocking serum was aspirated and replaced with biotinylated rabbit anti-sheep IgG at a dilution of 1:500 in PBS/0.3% TX10O/5% NRS. […]

[2] = molecular target: T1, JNK3α1 (Homo sapiens, UniProt P53779); experiment: Biochemical determination of inhibition of JNK3α1; details: truncated JNK3α1, 1 μM ATP, 0.5 μM GST-ATF2, 30° C., 30 min
T1 construct: Truncated JNK3α1 (amino acids 39-422) was expressed in E. coli; made in house; host or cells: E. coli
T1 sequence (P53779 39-422 isoform P53779-2): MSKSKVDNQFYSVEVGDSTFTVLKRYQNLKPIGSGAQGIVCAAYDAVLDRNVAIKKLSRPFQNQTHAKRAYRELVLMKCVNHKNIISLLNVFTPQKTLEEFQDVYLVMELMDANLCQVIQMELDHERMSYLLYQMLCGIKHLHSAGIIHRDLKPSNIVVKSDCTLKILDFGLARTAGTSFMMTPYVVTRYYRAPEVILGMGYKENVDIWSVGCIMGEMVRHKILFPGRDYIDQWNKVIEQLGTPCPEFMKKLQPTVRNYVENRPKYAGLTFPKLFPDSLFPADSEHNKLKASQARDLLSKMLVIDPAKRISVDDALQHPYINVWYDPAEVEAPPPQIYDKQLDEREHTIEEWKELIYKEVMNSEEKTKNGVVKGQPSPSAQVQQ
Description: Activation reactions were incubated at 30° C. for 2 h.
Enzyme inhibition studies were performed at 30° C. for 30 min with 0.5 μM GST-ATF2, 1 μM ATP, 1 nM activated JNK3α1 and compound ranging from 30 pM to 100 μM. Reactions were carried out in 100 μL volumes containing the final concentrations of the following: 25 mM HEPES (Sigma) pH 7.4; 10 mM MgCl2 (Sigma); 2 mM DTT (Sigma); 20 mM β-glycerophosphate (Sigma); 0.1 mM Na3VO4 (Sigma); 2 μCi [γ-^33P]ATP (2000 Ci/mmol; 1 Ci=37 GBq) (Amersham Pharmacia Biotech, Piscataway, N.J.). Reactions were stopped with 100 μL 100 mM EDTA/15 mM sodium pyrophosphate. Immobilon™-P 96-well plates (Millipore MAIPNOB™ 10, available from the Millipore Corp., Bedford, Mass.) were pretreated with 100 μL methanol, followed by 100 μL 15 mM sodium pyrophosphate. Fifty μL of the stopped reaction was spotted in triplicate on the Immobilon™-P 96-well plate. The samples were vacuum-filtered and washed three times each with 100 μL 75 mM H3PO4 to remove unincorporated [γ-^33P]ATP. After the third H3PO4 wash and a final filtration step to remove H3PO4, 50 μL of Microscint™-20 (Packard BioScience Ltd., Pangbourne, Berkshire, U.K.) was added to each well and samples were analyzed on a Packard Topcount™ liquid scintillation counter. IC50 values were determined by fitting the data to the equation for a four parameter logistic.

SMILES: CCCn1c(C2CCN(C)CC2)nc(-c2ccc(Cl)c(Cl)c2)c1-c1ccnc(NC2CC2)n1 [Example 2, Cyclopropyl-{4-[5-(3,4-dichlorophenyl)-2-[(1-methyl)-piperidin]-4-yl-3-propyl-3H-imidazol-4-yl]-pyrimidin-2-yl}amine]
- Survival, Cell Counts Mean ([1]; 0.001 μM + anti-NGF 250 ng/ml): 82.00
- Survival, ELISA Data Mean ([1]; 0.001 μM + anti-NGF 250 ng/ml): 35.44
- Survival, Cell Counts Mean ([1]; 0.01 μM + anti-NGF 250 ng/ml): 81.00
- Survival, ELISA Data Mean ([1]; 0.01 μM + anti-NGF 250 ng/ml): 28.20
- Survival, Cell Counts Mean ([1]; 0.1 μM + anti-NGF 250 ng/ml): 53.75
- Survival, ELISA Data Mean ([1]; 0.1 μM + anti-NGF 250 ng/ml): 22.89
- Survival, Cell Counts Mean ([1]; 0.5 μM + anti-NGF 250 ng/ml): 140.25
- Survival, ELISA Data Mean ([1]; 0.5 μM + anti-NGF 250 ng/ml): 60.15
- Survival, Cell Counts Mean ([1]; 1 μM + anti-NGF 250 ng/ml): 200.00
- Survival, ELISA Data Mean ([1]; 1 μM + anti-NGF 250 ng/ml): 102.79
- Concentrations at which the survival response was significant ([1]; measured by ELISA): ≥ 500 nM
- Concentrations at which the survival response was significant ([1]; measured by cell counts): ≥ 500 nM
- IC50 [2]: 7 nM
